Reference: patent US11058680B2, “Combinations of opioid/TLR4 antagonists and acetaminophen for use in the treatment of emotional pain and insomnia” (Allodynic Threapeutics, LLC, priority 2016, dated 2021)

What was measured:
[1] = test system: patient with chronic low back pain, tendinitis and fear from a near airplane crash; assay: Example 5 case study; assay type: in vivo, human; conditions: acetaminophen and ibuprofen prior to study; naltrexone 2.25 mg and acetaminophen 325 mg Q.I.D
[2] = test system: patient with lower back and leg pain and emotional pain due to separation from a child; assay: Example 12 case study, patient diary; conditions: for API, average pain intensity (0-10 NRS) / Insomnia (0-10 NRS) / PRSI, Pain Related Sleep Interference (0-10 NRS) / WEP, Worst Emotional Pain (0-10 NRS) / WPI, Worst Pain Intensity (0-10 NRS): Ibuprofen 800 mg T.I.D. PRN 2006-2010
[3] = test system: patients with low back pain (LBP); assay: Naltrexone/acetaminophen open-label pilot study for low back pain, daily patient diary (WPI, API, WEP, PRSI, insomnia, PGIC, energy, activity); assay type: in vivo, human
Procedure: Twenty patients of whom 16 had chronic low back pain (CLBP), three had acute LBP and one had pain due to Temporomandibular disorders (TMD) were evaluated in an open label pilot study. […] The patient reported diary questionnaire included the following questions.
Question No. 1: Choose one number that best describes the “Worst Pain” in your lower back in the last 24 hours (WPI) [measured on an 11-point NRS (0=no pain, 10=worst pain possible)].
Question No. 2: Choose one number that best describes the “Average Pain” in your lower back in the last 24 hours (API) [measured on an 11-point NRS (0=no pain, 10=worst pain possible)].
Question No. 3: Choose one number that best describes the “Worst Emotional Pain” you experienced in the last 24 hours. (E.g., “Today, I experienced hurt feelings, and/or anger, and/or fear, and/or sadness”).
Question No. 4: Choose one number that best describes how pain has interfered with your sleep in the last 24 hours [Pain Related Sleep Interference (PRSI) measured on an 11-point NRS (0=no interference, 10=complete interference)].
Question No. 5: Have you experienced difficulty sleeping or falling asleep (insomnia) in the last 24 hours [measured on an 11-point NRS (0=no insomnia, 10=worst insomnia possible)].

[4] = test system: patient with emotional pain due to football team losses and low back pain; assay: Example 4 case study, patient diary; assay type: in vivo, human
[5] = test system: patient with emotional pain due to severe pain caused by acute spinal disk herniation; assay: Example 6 case study, patient diary; assay type: in vivo, human
Procedure: They scheduled an elective inguinal hernia surgery during a time that they had already planned time off from work for their spouse and themself. […] The day after the incident, they took acetaminophen 3000 mg. […] They were in the process of purchasing a home, which they found stressful.

[6] = test system: patient with lower back pain and emotional pain due to conflict at work; assay: Example 7 case study; assay type: in vivo, human; conditions: acetaminophen 4 times, one day, naltrexone 2.25 mg and Tylenol 325 mg twice daily
[7] = test system: patient with lower back pain and emotional pain due to anger with poorly-performing employees; assay: Example 10 case study, patient diary; assay type: in vivo, human
From the text: A person building contractor with a history of lower back pain reported emotional pain due to frustration with their three employees' poor job performance. […] Treatment with naltrexone and acetaminophen eliminated their physical, as well as their emotional pain, which happened overnight.

[8] = test system: patient with emotional pain due to relationship break-up; assay: Example 11 case study, patient diary; assay type: in vivo, human; conditions: APAP 325 mg Q.I.D., Sep. 25-Oct. 2, 2015
migraine = conditions: literature, Brandes et al. JAMA 2007; cited from earlier work
[9] = test system: patient with emotional pain due to adjustment disorder, grieving passing of a pet; assay: Example 2 case study, emotional pain diary on 4-point scale (0=none, 1=mild, 2=moderate, 3=severe); assay type: in vivo, human; conditions: xanax before study treatment
From the text: The patient experienced a stressful life event (bereavement) that interfered with social functioning. […] The emotional pain intensity was rated on a 4-point unipolar scale (0=none, 1=mild, 2=moderate, 3=severe).

[10] = Naltrexone 2.25 mg Q.I.D./Clonidine 0.025 mg Q.I.D. 2010-2015, APAP 325 mg Q.I.D. Jun. 29-Jul. 6, 2015, Naltrexone 2.5 mg Q.I.D. to Jul. 8, 2015, Naltrexone 2.25 mg/APAP 325 mg Q.I.D. Jul. 9-Oct. 4, 2015
[11] = on treatment, last day, APAP 325 mg alone (N = 8, avg 9.83 days), NTX/APAP 2.25/325 mg (n = 18, avg 25.4 days)
[12] = treatment period, APAP 325 mg alone, NTX/APAP 2.25/325 mg
[13] = APAP 325 mg Q.I.D. Jun. 29-Jul. 8, 2015, NTX 2.25 mg/APAP 325 mg Q.I.D. Jul. 9-Aug. 9, 2015
[14] = APAP 325 mg Q.I.D., NTX 2.25 mg/APAP 325 mg Q.I.D.
[15] = APAP 1000 mg TID, Aug. 18-19, 2015
[16] = acetaminophen 3000 mg, the day after the incident
[17] = APAP 325 mg Q.I.D., Sep. 29-Oct. 1, 2015
[18] = acetaminophen for three days, naltrexone and acetaminophen, overnight

CC(C)Cc1ccc(C(C)C(=O)O)cc1 (stereo not shown) [Ibuprofen]
relief of physical pain (low back, foot) [1]: without significant relief
API, average pain intensity (0-10 NRS) [2, 10]: 5.5
Insomnia (0-10 NRS) [2, 10]: 9
PRSI, Pain Related Sleep Interference (0-10 NRS) [2, 10]: 7
WEP, Worst Emotional Pain (0-10 NRS) [2, 10]: 7
WPI, Worst Pain Intensity (0-10 NRS) [2, 10]: 6

CC(=O)Nc1ccc(O)cc1 [acetaminophen]
API Avg., average pain intensity (0-10 NRS) [3, 11]: 4.25
Activity Avg., change in activity level (1-7 Likert) [3, 11]: 4.67
Energy Avg., change in energy level (1-7 Likert) [3, 11]: 4.67
Insomnia Avg. (0-10 NRS) [3, 11]: 4.33
PGIC Avg., Patient Global Impression of Change (1-7 Likert, 7 = very much improved) [3, 11]: 5.00
PRSI Avg., Pain Related Sleep Interference (0-10 NRS) [3, 11]: 4.00
WEP Avg., Worst Emotional Pain (0-10 NRS) [3, 11]: 5.17
WPI Avg., Worst Pain Intensity (0-10 NRS) [3, 11]: 5.25
Mean Improvement from Baseline, API (0-10 NRS) [3, 12]: 1.28
Mean Improvement from Baseline, Insomnia (0-10 NRS) [3, 12]: −0.23
Mean Improvement from Baseline, PRSI (0-10 NRS) [3, 12]: 0.90
Mean Improvement from Baseline, WEP (0-10 NRS) [3, 12]: 0.14
Mean Improvement from Baseline, WPI (0-10 NRS) [3, 12]: 1.43
API, average pain intensity (0-10 NRS) [4, 13]: 3
Insomnia (0-10 NRS) [4, 13]: 0
PRSI, Pain Related Sleep Interference (0-10 NRS) [4, 13]: 0
WEP, Worst Emotional Pain (0-10 NRS) [4, 13]: 2
WPI, Worst Pain Intensity (0-10 NRS) [4, 13]: 3
Improvement from baseline, API [4, 14]: 25%
Improvement from baseline, WEP [4, 14]: 33%
Improvement from baseline, WPI [4, 14]: 40%
ability to handle emotional disturbance due to team losses ([4]; Tylenol 325 mg, 4 times daily for 10 days): did not report improvement
elimination/reduction of emotional and physical pain symptoms ([4]; naltrexone and acetaminophen for one month, acetaminophen alone): 25%-40%
relief of physical pain (low back, foot) [1]: without significant relief
API, average pain intensity (0-10 NRS) [5, 15]: 8
Insomnia (0-10 NRS) [5, 15]: 9
PGIC (1-7 Likert) [5, 15]: 5
PRSI, Pain Related Sleep Interference (0-10 NRS) [5, 15]: 9
WEP, Worst Emotional Pain (0-10 NRS) [5, 15]: 6
WPI, Worst Pain Intensity (0-10 NRS) [5, 15]: 9
emotional pain (NRS) [5, 16]: 6 /10
insomnia improved by [5, 16]: 1 point
pain level improved by [5, 16]: 1 point
emotional pain (patient report) [6]: did not notice a change
back pain (patient report) ([6]; within three days): slight improvement
API, average pain intensity (0-10 NRS) [7, 17]: 2.5
Insomnia (0-10 NRS) [7, 17]: 2
PGIC (1-7 Likert) [7, 17]: 5
PRSI, Pain Related Sleep Interference (0-10 NRS) [7, 17]: 4
WEP, Worst Emotional Pain (0-10 NRS) [7, 17]: 3
WPI, Worst Pain Intensity (0-10 NRS) [7, 17]: 4
back/physical pain (patient report) [7, 18]: improved their back pain
emotional pain (patient report) [7, 18]: remained unchanged
API, average pain intensity (0-10 NRS) [8]: 5
Insomnia (0-10 NRS) [8]: 10
PGIC (1-7 Likert) [8]: 5
PRSI, Pain Related Sleep Interference (0-10 NRS) [8]: 3.5
WEP, Worst Emotional Pain (0-10 NRS) [8]: 10
WPI, Worst Pain Intensity (0-10 NRS) [8]: 7
API, average pain intensity (0-10 NRS) [2, 10]: 3.5
Insomnia (0-10 NRS) [2, 10]: 5.5
PRSI, Pain Related Sleep Interference (0-10 NRS) [2, 10]: 4.5
WEP, Worst Emotional Pain (0-10 NRS) [2, 10]: 5.0
WPI, Worst Pain Intensity (0-10 NRS) [2, 10]: 4.5
PGIC (1-7 Likert) [2, 10]: 5
emotional pain due to separation from child (patient report) ([2]; naltrexone/clonidine, acetaminophen 325 mg four times daily 5 days, naltrexone alone 12 days, naltrexone 2.25 mg and acetaminophen 325 mg four times daily almost three months): same level of emotional pain

CNS(=O)(=O)Cc1ccc2[nH]cc(CCN(C)C)c2c1 [sumatriptan]
2-hour headache (migraine) pain-free (migraine): 25%

Cc1nnc2n1-c1ccc(Cl)cc1C(c1ccccc1)=NC2 [xanax]
relief of emotional pain (patient report) [9]: did not help
